Results reported in patent publication US8563730B2, “Pyrazole and fused pyrazole glucokinase activators” (Takeda San Diego, Inc., priority 2008, dated 2013).
Like-named read-outs stand apart in the source and are kept apart here.

Target: T1, GK (glucokinase, residues 12-465) (Homo sapiens, UniProt P35557)
T1 construct: I.D. No. 1 corresponds to residues 12-465 of glucokinase; made in house; host or cells: DH10b-T1r E. coli
T1 sequence (P35557 with tags, fused parts or gaps isoform P35557-2): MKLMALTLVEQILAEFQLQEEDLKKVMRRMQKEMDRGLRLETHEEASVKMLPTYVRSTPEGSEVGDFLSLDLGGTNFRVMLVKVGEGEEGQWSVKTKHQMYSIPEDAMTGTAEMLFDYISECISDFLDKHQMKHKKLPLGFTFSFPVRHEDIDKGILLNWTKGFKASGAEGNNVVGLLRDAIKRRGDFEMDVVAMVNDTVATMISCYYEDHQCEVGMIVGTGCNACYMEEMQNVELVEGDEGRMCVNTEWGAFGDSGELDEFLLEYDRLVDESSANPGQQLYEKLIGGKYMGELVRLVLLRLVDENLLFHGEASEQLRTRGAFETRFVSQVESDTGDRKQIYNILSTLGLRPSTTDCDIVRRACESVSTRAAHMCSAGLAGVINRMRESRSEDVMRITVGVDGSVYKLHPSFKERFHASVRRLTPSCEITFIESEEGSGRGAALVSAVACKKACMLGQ
Assay: enzymatic glucokinase activity assay (ATP consumption, KinaseGlo luminescence)
Format: biochemical
Details: 5 μM ATP, 5 mM Glucose, reported as bins; for EC50: Kact = concentration that displays 50% of the maximal increase in GK activity, 60 min, room temperature, read-out: pKact
Method in brief: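 E. coli-expressed recombinant GK purified by two anion-exchange steps. Reaction in 25 mM Hepes pH 7.2, 10 mM MgCl2, 1 mM DTT, 5 μM ATP, 5 mM glucose, 2% DMSO, 60 min at room temperature. ATP consumption quantified by KinaseGlo luminescence; pKact and % ACTmax derived by non-linear curve fitting.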

[1] = calculated maximal gain in GK enzyme activity at a saturating concentration of the compound, read-out: % ACTmax
[2] = read-out: % ACTmax, calculated maximal gain in GK enzyme activity at a saturating concentration of the compound

## COc1cc(S(=O)(=O)C2CC2)c2cnn(C(CC3CCOCC3)C(=O)Nc3ncc(F)s3)c2c1 (stereo not drawn) [Compound 72, 2-(4-(cyclopropylsulfonyl)-6-methoxy-1H-indazol-1-yl)-N-(5-fluorothiazol-2-yl)-3-(tetrahydro-2H-pyran-4-yl)propanamide]
  EC50: ≤ 0.316 µM
[1]
  Emax: ≤ 90%

## COc1cc(S(=O)(=O)C2CC2)c2cn(C(CC3CCOCC3)C(=O)Nc3ncc(F)s3)nc2c1 (stereo not drawn) [Compound 73, 2-(4-(cyclopropylsulfonyl)-6-methoxy-2H-indazol-2-yl)-N-(5-fluorothiazol-2-yl)-3-(tetrahydro-2H-pyran-4-yl)propanamide]
  EC50: ≥ 15.8 µM
[1]
  Emax: 90 to 100%

## O=C1CC[C@H](C[C@@H](C(=O)Nc2cnccn2)n2ncc3c(S(=O)(=O)C4CC4)cccc32)C1 [Compound 74, (S)-2-(4-(cyclopropylsulfonyl)-1H-indazol-1-yl)-3-((R)-3-oxocyclopentyl)-N-(pyrazin-2-yl)propanamide]
  EC50: 1.58 to 3.16 µM
[1]
  Emax: 90 to 100%

## O=C1CC[C@H](C[C@H](C(=O)Nc2cnccn2)n2ncc3c(S(=O)(=O)C4CC4)cccc32)C1 [Compound 75, (R)-2-(4-(cyclopropylsulfonyl)-1H-indazol-1-yl)-3-((R)-3-oxocyclopentyl)-N-(pyrazin-2-yl)propanamide]
  EC50: 0.398 to 1.26 µM
[1]
  Emax: 90 to 100%

## O=C(Nc1ncc(F)s1)[C@H](CC1CCOCC1)n1ncc2c(S(=O)(=O)C3CC3)cc(O)cc21 [Compound 76, (S)-2-(4-(cyclopropylsulfonyl)-6-hydroxy-1H-indazol-1-yl)-N-(5-fluorothiazol-2-yl)-3-(tetrahydro-2H-pyran-4-yl)propanamide]
  EC50: ≤ 0.316 µM
[1]
  Emax: 106 to 110%

## O=C(Nc1ncc(F)s1)[C@@H](CC1CCOCC1)n1ncc2c(S(=O)(=O)C3CC3)cc(O)cc21 [Compound 77, (R)-2-(4-(cyclopropylsulfonyl)-6-hydroxy-1H-indazol-1-yl)-N-(5-fluorothiazol-2-yl)-3-(tetrahydro-2H-pyran-4-yl)propanamide]
  EC50: ≥ 15.8 µM
[1]
  Emax: 101 to 105%

## O=C1CC[C@H](C[C@H](C(=O)Nc2ncc(F)s2)n2ncc3c(S(=O)(=O)C4CC4)cc(Cl)cc32)C1 [Compound 78, (R)-2-(6-chloro-4-(cyclopropylsulfonyl)-1H-indazol-1-yl)-N-(5-fluorothiazol-2-yl)-3-((R)-3-oxocyclopentyl)propanamide]
  EC50: 1.58 to 3.16 µM
[1]
  Emax: 90 to 100%

## O=C1CC[C@H](C[C@@H](C(=O)Nc2ncc(F)s2)n2ncc3c(S(=O)(=O)C4CC4)cc(Cl)cc32)C1 [Compound 79, (S)-2-(6-chloro-4-(cyclopropylsulfonyl)-1H-indazol-1-yl)-N-(5-fluorothiazol-2-yl)-3-((R)-3-oxocyclopentyl)propanamide]
  EC50: ≤ 0.316 µM
[1]
  Emax: 90 to 100%

## COc1ccc2c(cnn2C(CC2CCOCC2)C(=O)Nc2ncc(F)s2)c1S(=O)(=O)C1CC1 (stereo not drawn) [Compound 80, 2-(4-(cyclopropylsulfonyl)-5-methoxy-1H-indazol-1-yl)-N-(5-fluorothiazol-2-yl)-3-(tetrahydro-2H-pyran-4-yl)propanamide]
  EC50: ≤ 0.316 µM
[1]
  Emax: 101 to 105%

## COc1ccc2c(cnn2[C@H](CC2CCOCC2)C(=O)Nc2ncc(F)s2)c1S(=O)(=O)C1CC1 [Compound 81, (R)-2-(4-(cyclopropylsulfonyl)-5-methoxy-1H-indazol-1-yl)-N-(5-fluorothiazol-2-yl)-3-(tetrahydro-2H-pyran-4-yl)propanamide]
  EC50: 3.98 to 12.6 µM
[1]
  Emax: 101 to 105%

## COc1ccc2c(cnn2[C@@H](CC2CCOCC2)C(=O)Nc2ncc(F)s2)c1S(=O)(=O)C1CC1 [Compound 82, (S)-2-(4-(cyclopropylsulfonyl)-5-methoxy-1H-indazol-1-yl)-N-(5-fluorothiazol-2-yl)-3-(tetrahydro-2H-pyran-4-yl)propanamide]
  EC50: ≤ 0.316 µM
[1]
  Emax: 106 to 110%

## COc1cc(S(=O)(=O)C2CC2)c2cnn(C(CC3CCOCC3)C(=O)Nc3ccn(C)n3)c2c1 (stereo not drawn) [Compound 83, 2-(4-(cyclopropylsulfonyl)-6-methoxy-1H-indazol-1-yl)-N-(1-methyl-1H-pyrazol-3-yl)-3-(tetrahydro-2H-pyran-4-yl)propanamide]
  EC50: 3.98 to 12.6 µM
[1]
  Emax: ≤ 90%

## O=C(Nc1ncc(F)s1)[C@H](CC1CCOCC1)n1ncc2c(S(=O)(=O)C3CC3)cncc21 [Compound 84, (S)-2-(4-(cyclopropylsulfonyl)-1H-pyrazolo[3,4-c]pyridin-1-yl)-N-(5-fluorothiazol-2-yl)-3-(tetrahydro-2H-pyran-4-yl)propanamide]
  EC50: ≤ 0.316 µM
[2]
  Emax: 106 to 110%

## O=C(Nc1ncc(F)s1)[C@@H](CC1CCOCC1)n1ncc2c(S(=O)(=O)C3CC3)cncc21 [Compound 85, (R)-2-(4-(cyclopropylsulfonyl)-1H-pyrazolo[3,4-c]pyridin-1-yl)-N-(5-fluorothiazol-2-yl)-3-(tetrahydro-2H-pyran-4-yl)propanamide]
  EC50: 1.58 to 3.16 µM
[2]
  Emax: 90 to 100%

## N#Cc1cccnc1NC(=O)C(CC1CCOCC1)n1ncc2c(S(=O)(=O)C3CC3)cccc21 (stereo not drawn) [Compound 86, N-(3-cyanopyridin-2-yl)-2-(4-(cyclopropylsulfonyl)-1H-indazol-1-yl)-3-(tetrahydro-2H-pyran-4-yl)propanamide]
  EC50: ≥ 15.8 µM
[1]
  Emax: ≤ 90%

## O=C(Nc1ncc(F)s1)C(CC1CCOCC1)n1ncc2c(S(=O)(=O)C3CC3)c(OC(F)F)ccc21 (stereo not drawn) [Compound 87, 2-(4-(cyclopropylsulfonyl)-5-(difluoromethoxy)-1H-indazol-1-yl)-N-(5-fluorothiazol-2-yl)-3-(tetrahydro-2H-pyran-4-yl)propanamide]
  EC50: 1.58 to 3.16 µM
[1]
  Emax: 90 to 100%

## O=C(Nc1ncc(F)cc1F)C(CC1CCOCC1)n1ncc2c(S(=O)(=O)C3CC3)cccc21 (stereo not drawn) [Compound 88, 2-(4-(cyclopropylsulfonyl)-1H-indazol-1-yl)-N-(3,5-difluoropyridin-2-yl)-3-(tetrahydro-2H-pyran-4-yl)propanamide]
  EC50: ≥ 15.8 µM
[1]
  Emax: ≤ 90%

## O=C(Nc1cnccn1)[C@H](CC1CCOCC1)n1ncc2c(S(=O)(=O)C3CC3)cccc21 [Compound 89, (S)-2-(4-(cyclopropylsulfonyl)-1H-indazol-1-yl)-N-(pyrazin-2-yl)-3-(tetrahydro-2H-pyran-4-yl)propanamide]
  EC50: 1.58 to 3.16 µM
[1]
  Emax: 101 to 105%

## O=C(Nc1cnccn1)[C@@H](CC1CCOCC1)n1ncc2c(S(=O)(=O)C3CC3)cccc21 [Compound 90, (R)-2-(4-(cyclopropylsulfonyl)-1H-indazol-1-yl)-N-(pyrazin-2-yl)-3-(tetrahydro-2H-pyran-4-yl)propanamide]
  EC50: ≥ 15.8 µM
[1]
  Emax: 90 to 100%

## COc1ccc2c(cnn2C(CC2CCOCC2)C(=O)Nc2cnccn2)c1S(=O)(=O)C1CC1 (stereo not drawn) [Compound 91, 2-(4-(cyclopropylsulfonyl)-5-methoxy-1H-indazol-1-yl)-N-(pyrazin-2-yl)-3-(tetrahydro-2H-pyran-4-yl)propanamide]
  EC50: 0.398 to 1.26 µM
[1]
  Emax: 101 to 105%

## COc1cc(S(=O)(=O)C2CC2)c2cnn(C(CC3CCOCC3)C(=O)Nc3cnccn3)c2c1 (stereo not drawn) [Compound 92, 2-(4-(cyclopropylsulfonyl)-6-methoxy-1H-indazol-1-yl)-N-(pyrazin-2-yl)-3-(tetrahydro-2H-pyran-4-yl)propanamide]
  EC50: 3.98 to 12.6 µM
[1]
  Emax: ≤ 90%
